Results as given in patent US20210205401A1, “SYNERGISTIC DIETARY SUPPLEMENT COMPOSITIONS FOR THE PREVENTION, TREATMENT OR CONTROL OF INFLAMMATORY DISORDERS” (LAILA NUTRACEUTICALS, priority 2014, published 2021).

Columns and labels:
[1] = system: Freund's Complete Adjuvant induced arthritis model of Sprague Dawley (SD) rats; experiment: In-vivo anti-inflammatory activity of Composition-1, Freund's Complete Adjuvant induced arthritis model (Example 17); conditions: Composition-1 200 mg/kg body weight, Prednisolone 10 mg/kg, daily for 35 days, vs CMC control
Description: The in-vivo anti-inflammatory activity of composition-1, comprising the water extract of 50 g of Terminalia chebula, 25 g of methanol extract of Curcuma longa, 25 g of Boswellia serrata non-acidic resin extract (BNRE), so that their percentages in the composition are 50%, 25% and 25% respectively was evaluated by an in-vivo study in Freund's Complete Adjuvant induced arthritis model of Sprague Dawley (SD) rats.
(§1) Prednisolone was used as a positive control. The healthy male SD rats were selected and randomly divided into four groups containing six animals per group. The treatment group rats were supplemented daily with 200 mg/kg body weight of Composition-1 for 35 days. The positive control group was supplemented daily with Prednisolone at 10 mg/kg body weight. All supplements were diluted in 10 mL of 1% CMC for administration. The animals of control group received same volume of 1% CMC. At the 7th day, Freund's Complete Adjuvant (FCA) was injected subcutaneously in the sub-plantar region of the left hind paw of each animal. Paw volumes and weight bearing capacities were respectively measured using Plethysmography equipment and Incapacitance Meter on the day of FCA injection and on 35th day of treatment. The difference in volume of paw edema is considered as the inflammatory response. […]

[2] = system: Freund's Complete Adjuvant induced arthritis model of Sprague Dawley rats; experiment: In-vivo anti-inflammatory activity of Composition-7, Freund's Complete Adjuvant induced arthritis model (Example 18); conditions: Composition-7 200 mg/kg body weight p.o., Prednisolone 10 mg/kg, daily for 35 days, vs CMC control
Source text: The in-vivo anti-inflammatory activity of composition-7, comprising the water extract of 36 g of Terminalia chebula, 18 g of methanol extract of Curcuma longa, 18 g of Boswellia serrata non-acidic resin extract (BNRE), 18 g of Boswellia serrata extract standardized to 75%-85% total acids by volumetric assay which contain 5% 3-O-acetyl-11-keto-β-boswellic acid (AKBA) and 10 g of excipients [Microcrystalline cellulose (MCC) and Syloid], so that their percentages in the composition are 36%, 18%, 18%, 18% and 10% respectively was evaluated by an in-vivo study in Freund's Complete Adjuvant induced arthritis model of Sprague Dawley rats.
as §1, with “Composition-7” for “Composition-1”, “At the 7th day, Freund's Complete Adjuvant (FCA) was injected subcutaneously in the sub-plantar region of the left hind paw of each animal.” left out, “treatment.” for “treatment. The difference in volume of paw edema is considered as the inflammatory response.”

SMILES: C[C@]12C=CC(=O)C=C1CC[C@@H]1[C@@H]2[C@@H](O)C[C@@]2(C)[C@H]1CC[C@]2(O)C(=O)CO [Prednisolone]
- % inhibition of Paw edema [1]: 72.73%
- % inhibition of Paw edema [2]: 68.67%
